Data taken from patent US9321760B2 (Merck Patent GmbH, priority 2011, dated 2016).

The compounds below were run against P70S6K (T412E mutant) (Homo sapiens (Human), UniProt P23443, T412E) (assay: P70S6K enzyme assay). Details: 3 nM P70S6K T412E mutant, 24 μM ATP, 1 μM FITC-AHA-AKRRRLSSLRA-OH substrate peptide, 90 min at 25° C.
Type: biochemical
Method in brief: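 P70S6K T412E mutant (3 nM) with 24 μM ATP and 1 μM FITC-labelled S6-derived peptide in Hepes pH 7.5, MgCl2, DTT, Brij buffer; 90 min at 25° C, stopped with EDTA. Phosphorylated product and substrate peptides separated by microfluidic mobility shift; IC50 values derived.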

Sequence of P70S6K (T412E mutant) (P23443 whole entry T412E): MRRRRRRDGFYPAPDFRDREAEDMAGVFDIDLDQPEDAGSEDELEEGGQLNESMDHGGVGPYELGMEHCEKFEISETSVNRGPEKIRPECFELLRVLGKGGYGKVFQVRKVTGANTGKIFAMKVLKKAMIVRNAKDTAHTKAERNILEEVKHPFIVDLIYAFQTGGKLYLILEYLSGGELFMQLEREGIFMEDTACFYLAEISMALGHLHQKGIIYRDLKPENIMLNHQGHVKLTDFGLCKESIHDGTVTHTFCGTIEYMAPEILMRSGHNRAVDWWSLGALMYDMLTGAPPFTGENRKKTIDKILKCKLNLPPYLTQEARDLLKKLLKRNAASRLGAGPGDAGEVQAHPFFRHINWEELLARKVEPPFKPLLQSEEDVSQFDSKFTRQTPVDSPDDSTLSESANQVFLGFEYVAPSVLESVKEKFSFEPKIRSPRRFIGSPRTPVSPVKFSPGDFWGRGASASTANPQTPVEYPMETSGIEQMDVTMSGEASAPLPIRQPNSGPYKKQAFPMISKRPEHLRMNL

SMILES	IC50 [nM]
NCC(c1ccc(OC(F)(F)F)cc1)N1CCN(c2ncnc(N)c2-c2cn[nH]c2)CC1 (centres unmarked) [Example 186, 6-(4-(2-amino-1-(4-(trifluoromethoxy)phenyl)ethyl)piperazin-1-yl)-5-(1H-pyrazol-4-yl)pyrimidin-4-amine]	1.4
Nc1ncnc(N2CCN([C@H](CN3CCC3)c3ccc4c(c3)OCCO4)CC2)c1-c1ccc(F)cc1 [Example 98, 6-{4-[(S)-2-Azetidin-1-yl-1-(2,3-dihydro-benzo[1,4]dioxin-6-yl)-ethyl]-piperazin-1-yl}-5-(4-fluoro-phenyl)-pyrimidin-4-ylamine]	260
Nc1ncnc(N2CCC(N)(CNC(=O)c3ccc(F)cc3F)C2)c1-c1ccncc1 (centres unmarked) [Example 205, N-[3-Amino-1-(6-amino-5-pyridin-4-yl-pyrimidin-4-yl)-pyrrolidin-3-ylmethyl]-2,4-difluoro-benzamide]	25
N#Cc1c(N)ncnc1N1CCC(N)(C(=O)N[C@@H](CCO)c2ccccc2)CC1 [Example 226, 4-Amino-1-(6-amino-5-cyano-pyrimidin-4-yl)-piperidine-4-carboxylic acid ((S)-3-hydroxy-1-phenyl-propyl)-amide]	820
Nc1cc(N2CCN(C(CN3CCCCC3)c3cccc(C(F)(F)F)c3)CC2)ncn1 (centres unmarked) [Example 71, 6-{4-[1-(3-trifluoromethyl-phenyl)-2-piperidin-1-yl-ethyl]-piperazin-1-yl}-pyrimidin-4-ylamine]	> 1000
N#Cc1ccc(C(CN2CCC2)N2CCN(c3ncnc(N)c3-c3cn[nH]c3)CC2)cc1 (single isomer, unassigned) [Example 85, 4-(1-{4-[6-Amino-5-(1H-pyrazol-4-yl)-pyrimidin-4-yl]-piperazin-1-yl}-2-azetidin-1-yl-ethyl)-benzonitrile]	2800
NCC(c1ccc(C(F)(F)F)nc1)N1CCN(c2ncnc(N)c2-c2ccc(F)cc2)CC1 (centres unmarked) [Example 194, 6-{4-[2-Amino-1-(6-trifluoromethyl-pyridin-3-yl)-ethyl]-piperazin-1-yl}-5-(4-fluoro-phenyl)-pyrimidin-4-ylamine]	9.8
CC(c1ccc(Cl)cc1O)N1CCN(c2ncnc(N)c2-c2ccc(F)cc2)CC1 (centres unmarked) [Example 61, 2-(1-(4-(6-amino-5-(4-fluorophenyl)pyrimidin-4-yl)piperazin-1-yl)ethyl)-5-chlorophenol]	33
Nc1ncnc(N2CCN(C(CN3CCC3)c3ccc(C(F)(F)F)cc3)CC2)c1-c1ccc(F)cc1 (centres unmarked) [Example 27, 6-(4-(2-(azetidin-1-yl)-1-(4-(trifluoromethyl)phenyl)ethyl)piperazin-1-yl)-5-(4-fluorophenyl)pyrimidin-4-amine]	4.2
N#CC(c1cccnc1)N1CCN(c2ncnc(N)c2-c2ccc(F)cc2)CC1 (centres unmarked) [Example 190, {4-[6-Amino-5-(4-fluoro-phenyl)-pyrimidin-4-yl]-piperazin-1-yl}-pyridin-3-yl-acetonitrile]	230
NC[C@@H](c1ccc(C(F)(F)F)cc1)C1CCN(c2ncnc(N)c2-c2cn[nH]c2)CC1 (single isomer, unassigned) [Example 57]	4.7
C[C@H](NC(=O)C1(N)CCN(c2ncnc(N)c2C#N)CC1)c1ccc(Cl)cc1 [Example 218, 4-Amino-1-(6-amino-5-cyano-pyrimidin-4-yl)-piperidine-4-carboxylic acid [(S)-1-(4-chloro-phenyl)-ethyl]-amide]	200
N#Cc1ccc([C@@H](CN2CCC2)N2CCN(c3ncnc(N)c3-c3cn[nH]c3)CC2)cc1 [Example 88, 4-((S)-1-{4-[6-Amino-5-(1H-pyrazol-4-yl)-pyrimidin-4-yl]-piperazin-1-yl}-2-azetidin-1-yl-ethyl)-benzonitrile]	6700
N#CC(c1ccc(F)cc1)N1CCN(c2ncnc(N)c2-c2ccc(F)cc2)CC1 (centres unmarked) [Example 158, {4-[6-Amino-5-(4-fluoro-phenyl)-pyrimidin-4-yl]-piperazin-1-yl}-(4-fluoro-phenyl)-acetonitrile]	240
CCc1c(N)ncnc1N1CCN(C(CN)c2ccc(Cl)cc2)CC1 (centres unmarked) [Example 178, 6-{4-[2-Amino-1-(4-chloro-phenyl)-ethyl]-piperazin-1-yl}-5-ethyl-pyrimidin-4-ylamine]	69
Nc1ncnc(N2CCN(C(CN3CCCC3)c3ccc(F)cc3)CC2)c1-c1ccc(F)cc1 (stereo in doubt) [Example 83, (S)-5-(4-Fluorophenyl)-6{4-[1-(4-fluorophenyl)-2-pyrrolidin-1-yl-ethyl]-piperazin-1-yl}-pyrimidin-4-ylamine]	1000
NCC(c1ccc(C(F)(F)F)cc1F)N1CCN(c2ncnc(N)c2-c2ccc(F)cc2)CC1 (centres unmarked) [Example 170, 6-{4-[2-Amino-1-(2-fluoro-4-trifluoromethyl-phenyl)-ethyl]-piperazin-1-yl}-5-(4-fluoro-phenyl)-pyrimidin-4-ylamine]	12
N#Cc1cccc([C@@H](CN2CCC2)N2CCN(c3ncnc(N)c3-c3cn[nH]c3)CC2)c1 [Example 97, 3-((S)-1-{4-[6-Amino-5-(1H-pyrazol-4-yl)-pyrimidin-4-yl]-piperazin-1-yl}-2-azetidin-1-yl-ethyl)-benzonitrile]	3700
Cn1ccc(-c2c(N)ncnc2N2CCN(C(CN)c3ccc(C(F)(F)F)cc3)CC2)n1 (centres unmarked) [Example 43, 6-{4-[2-Amino-1-(4-trifluoromethyl-phenyl)-ethyl]-piperazin-1-yl}-5-(1-methyl-1H-pyrazol-3-yl)-pyrimidin-4-ylamine]	98
Nc1ncnc(N2CCN(C(CN3CCCCC3)c3ccc(C(F)(F)F)cc3)CC2)c1Br (centres unmarked) [Example 11, 5-bromo-6-(4-(2-(piperidin-1-yl)-1-(4-(trifluoromethyl)phenyl)ethyl)piperazin-1-yl)pyrimidin-4-amine]	280
Nc1ncnc(N2CCC(N)(C(=O)N[C@@H](CCO)c3ccc(C(F)(F)F)cc3)CC2)c1Cl [Example 223, 4-Amino-1-(6-amino-5-chloro-pyrimidin-4-yl)-piperidine-4-carboxylic acid [(S)-3-hydroxy-1-(4-trifluoromethyl-phenyl)-propyl]-amide]	22000

Next, values leading:

IC50 [nM]	SMILES
460	Nc1ncnc(N2CCN(C(CCN3CCC3)c3ccc(Cl)cc3)CC2)c1-c1ccc(F)cc1 (centres unmarked) [Example 112, 6-{4-[3-Azetidin-1-yl-1-(4-chloro-phenyl)-propyl]-piperazin-1-yl}-5-(4-fluoro-phenyl)-pyrimidin-4-ylamine]
980	CC(c1ccc(Cl)cc1OC1CNC1)N1CCN(c2ncnc(N)c2-c2ccc(F)cc2)CC1 (centres unmarked) [Example 63, 6-(4-{1-[2-(Azetidin-3-yloxy)-4-chloro-phenyl]-ethyl}-piperazin-1-yl)-5-(4-fluoro-phenyl)-pyrimidin-4-ylamine]
670	Nc1ncnc(N2CCN(C(CN3CCC3)c3cccc(C(F)(F)F)c3F)CC2)c1-c1cn[nH]c1 (centres unmarked) [Example 99, 6-{4-[2-Azetidin-1-yl-1-(2-fluoro-3-trifluoromethyl-phenyl)-ethyl]-piperazin-1-yl}-5-(1H-pyrazol-4-yl)-pyrimidin-4-ylamine]
1500	Nc1ncnc(N2CCN(C(CN3CCC3)c3ccc(Cl)c(Cl)c3)CC2)c1-c1cn[nH]c1 (centres unmarked) [Example 131, 6-{4-[2-Azetidin-1-yl-1-(3,4-dichloro-phenyl)-ethyl]-piperazin-1-yl}-5-(1H-pyrazol-4-yl)-pyrimidin-4-ylamine]
180	CCc1c(N)ncnc1N1CCN(C(CN)c2ccc3c(c2)OCCO3)CC1 (centres unmarked) [Example 181, 6-{4-[2-Amino-1-(2,3-dihydro-benzo[1,4]dioxin-6-yl)-ethyl]-piperazin-1-yl}-5-ethyl-pyrimidin-4-ylamine]
> 100000	Nc1ncnc(N2CCN(C(CN3CCC3)c3ccc(Cl)c(Cl)c3)CC2)c1-c1ccc(N2CCNCC2)nc1 (centres unmarked) [Example 133, 6-{4-[2-Azetidin-1-yl-1-(3,4-dichloro-phenyl)-ethyl]-piperazin-1-yl}-5-(6-piperazin-1-yl-pyridin-3-yl)-pyrimidin-4-ylamine]
3.3	Nc1ncnc(N2CCC(N)(CNC(=O)c3ccc(F)cc3F)C2)c1Br (centres unmarked) [Example 195, N-[3-Amino-1-(6-amino-5-bromo-pyrimidin-4-yl)-pyrrolidin-3-ylmethyl]-2,4-difluoro-benzamide]
5000	COC[C@H](NC(=O)C1(N)CCN(c2ncnc(N)c2C(N)=O)CC1)c1ccc(Cl)cc1 [Example 246, 4-Amino-6-{4-amino-4-[(R)-1-(4-chloro-phenyl)-2-methoxy-ethylcarbamoyl]-piperidin-1-yl}-pyrimidine-5-carboxylic acid amide]
3.4	NCC(c1ccc(C(F)(F)F)cc1)N1CCN(c2ncnc(N)c2C2=CCCC2)CC1 (centres unmarked) [Example 25, 6-(4-(2-amino-1-(4-(trifluoromethyl)phenyl)ethyl)piperazin-1-yl)-5-(cyclopent-1-en-1-yl)pyrimidin-4-amine]
16	Nc1ncnc(N2CCC(Cc3ccc(Cl)cc3)CC2)c1-c1ccc(F)cc1 [Example 49, 5-(4-Fluorophenyl)-6{4-(4-chlorobenzyl)-piperidin-1-yl}pyrimidin-4-amine]
23000	Cc1ccc([C@H](CCO)NC(=O)C2(N)CCN(c3ncnc(N)c3C(N)=O)CC2)cc1 [Example 232, 4-Amino-6-[4-amino-4-((S)-3-hydroxy-1-p-tolyl-propylcarbamoyl)-piperidin-1-yl]-pyrimidine-5-carboxylic acid amide]
1000	C=Cc1c(N)ncnc1N1CCC(C(O)c2ccc(F)cc2)CC1 (centres unmarked) [Example 141, 1-6-amino-5-(vinylpyrimidin-4-yl)piperidin-4-yl-4-(fluorophenyl)methanol]
640	Nc1ncnc(N2CCN(C(CN3CCCC3)c3ccc(F)cc3)CC2)c1Br (centres unmarked) [Example 77, 5-Bromo-6{4-[1-(4-fluorophenyl)-2-pyrrolidin-1-yl-ethyl]-piperazin-1-yl}-pyrimidin-4-ylamine]
3600	N#Cc1c(N)ncnc1N1CCC(N)(C(=O)N[C@@H](CCO)c2ccncc2)CC1 [Example 231, 4-Amino-1-(6-amino-5-cyano-pyrimidin-4-yl)-piperidine-4-carboxylic acid ((S)-3-hydroxy-1-pyridin-4-yl-propyl)-amide]
